# Assay results reported in ChEMBL document CHEMBL1212763, “Pharmacokinetics and safety of S/GSK1349572, a next-generation HIV integrase inhibitor, in healthy volunteers” (Antimicrob Agents Chemother, 2010).
# Assays:
# [1] = tested on: Homo sapiens; test: Toxicity in healthy human assessed as incidence of drug related incidence of pruritis at 10 mg, qd for 10 days administered as suspension measured after last dose; format: organism-based; conditions: in vivo, 240 h
# [2] = AUC (0-t) in healthy human at 5 mg administered as single dose suspension; format: ADME, organism-based; conditions: plasma
# [3] = tested on: Homo sapiens; test: Toxicity in healthy human assessed as incidence of drug related incidence of pharyngolaryngeal pain at 10 mg, qd for 10 days administered as suspension measured after last dose; format: organism-based; conditions: in vivo, 240 h
# [4] = tested on: Homo sapiens; test: Toxicity in healthy human assessed as incidence of drug related incidence of pharyngolaryngeal pain at 25 mg, qd for 10 days administered as suspension measured after last dose coadministered with 3 mg CYP3A4 probe midazolam; format: organism-based; conditions: in vivo, 240 h
# [5] = AUC (0-infinity) in healthy human at 5 mg administered as single dose suspension; format: ADME, organism-based; design: dose 5 mg, time infinity; conditions: plasma
# [6] = Half life in healthy human at 25 mg administered as single dose suspension; format: ADME, organism-based; conditions: in vivo
# [7] = AUC (0-t) in healthy human at 25 mg administered as single dose suspension; format: ADME, organism-based; conditions: plasma
# [8] = tested on: Homo sapiens; test: Toxicity in healthy human assessed as incidence of drug related incidence of headache at 10 mg, qd for 10 days administered as suspension measured after last dose; format: organism-based; conditions: in vivo, 240 h
# [9] = Drug level at 24 hrs in healthy human at 2 mg administered as single dose suspension; format: ADME, organism-based; conditions: in vivo, read-out: Drug uptake
# [10] = AUC (0-infinity) in healthy human at 2 mg administered as single dose suspension; format: ADME, organism-based; design: dose 2 mg, time infinity; conditions: plasma
# [11] = Tmax in healthy human at 50 mg, qd for 10 days administered as suspension measured after last dose; format: ADME, organism-based; conditions: in vivo
# [12] = Cmax in healthy human at 10 mg administered as single dose suspension; format: ADME, organism-based; design: dose 10 mg; conditions: in vivo
# [13] = Drug level at 24 hrs in healthy human at 50 mg administered as single dose suspension; format: ADME, organism-based; conditions: in vivo, read-out: Drug uptake
# [14] = tested on: Homo sapiens; test: Toxicity in healthy human assessed as incidence of drug related incidence of pharyngolaryngeal pain at 25 mg, qd for 10 days administered as suspension measured after last dose; format: organism-based; conditions: in vivo, 240 h
# [15] = AUC (0-t) in healthy human at 100 mg administered as single dose suspension; format: ADME, organism-based; conditions: plasma
# [16] = Cmax in healthy human at 25 mg administered as single dose suspension; format: ADME, organism-based; design: dose 25 mg; conditions: in vivo
# [17] = tested on: Homo sapiens; test: Toxicity in healthy human assessed as incidence of drug related incidence of somnolence at 2 mg administered as single dose suspension; format: organism-based; conditions: in vivo
# [18] = AUC (0-t) in healthy human at 10 mg administered as single dose suspension; format: ADME, organism-based; conditions: plasma
# [19] = Apparent oral clearance in healthy human at 50 mg administered as single dose suspension; format: ADME, organism-based; conditions: in vivo
# [20] = tested on: Homo sapiens; test: Toxicity in healthy human assessed as incidence of drug related incidence of somnolence at 5 mg administered as single dose suspension; format: organism-based; conditions: in vivo
# [21] = AUC (0-t) in healthy human at 2 mg administered as single dose suspension; format: ADME, organism-based; conditions: plasma
# [22] = tested on: Homo sapiens; test: Toxicity in healthy human assessed as incidence of drug related incidence of pruritis at 25 mg, qd for 10 days administered as suspension measured after last dose; format: organism-based; conditions: in vivo, 240 h
# [23] = Apparent oral clearance in healthy human at 2 mg administered as single dose suspension; format: ADME, organism-based; conditions: in vivo
# [24] = tested on: Homo sapiens; test: Toxicity in healthy human assessed as incidence of drug related incidence of pruritis at 50 mg, qd for 10 days administered as suspension measured after last dose; format: organism-based; conditions: in vivo, 240 h
# [25] = tested on: Homo sapiens; test: Toxicity in healthy human assessed as incidence of drug related incidence of somnolence at 10 mg administered as single dose suspension; format: organism-based; conditions: in vivo
# [26] = Tmax in healthy human at 25 mg, qd for 10 days administered as suspension measured after last dose; format: ADME, organism-based; conditions: in vivo
# [27] = Half life in healthy human at 50 mg administered as single dose suspension; format: ADME, organism-based; conditions: in vivo
# [28] = Drug level in healthy human at 10 mg, qd for 10 days administered as suspension measured after last dose; format: ADME, organism-based; conditions: in vivo, read-out: Drug uptake
# [29] = Drug level in healthy human at 50 mg, qd for 10 days administered as suspension measured after last dose; format: ADME, organism-based; conditions: in vivo, read-out: Drug uptake
# [30] = AUC (0-t) in healthy human at 50 mg administered as single dose suspension; format: ADME, organism-based; conditions: plasma
# [31] = Apparent oral clearance in healthy human at 10 mg administered as single dose suspension; format: ADME, organism-based; conditions: in vivo
# [32] = Tmax in healthy human at 25 mg administered as single dose suspension; format: ADME, organism-based; conditions: in vivo
# [33] = Cmax in healthy human at 50 mg, qd for 10 days administered as suspension measured after last dose; format: ADME, organism-based; design: dose 50 mg; conditions: in vivo
# [34] = Cmax in healthy human at 25 mg, qd for 10 days administered as suspension measured after last dose; format: ADME, organism-based; design: dose 25 mg; conditions: in vivo
# [35] = tested on: Homo sapiens; test: Toxicity in healthy human assessed as incidence of drug related incidence of head ache at 10 mg administered as single dose suspension; format: organism-based; conditions: in vivo
# [36] = Half life in healthy human at 10 mg administered as single dose suspension; format: ADME, organism-based; conditions: in vivo
# [37] = Tmax in healthy human at 10 mg administered as single dose suspension; format: ADME, organism-based; conditions: in vivo
structure (smiles),measurement,setting,value
C[C@@H]1CCO[C@H]2Cn3cc(C(=O)NCc4ccc(F)cc4F)c(=O)c([O-])c3C(=O)N12.[Na+] [DOLUTEGRAVIR SODIUM],Activity,[1],0%
same,AUC(0-t),[2],8540 ng·h/mL
same,Activity,[3],0%
same,Activity,[4],0%
same,AUC(0-inf),[5],8870 ng·h/mL
same,half-life,[6],12.7 h
same,AUC(0-t),[7],34300 ng·h/mL
same,Activity,[8],0%
same,concentration at 24 h,[9],38.2 ng/mL
same,AUC(0-inf),[10],2780 ng·h/mL
same,Tmax,[11],1 h
same,Cmax,[12],1230 ng/mL
same,concentration at 24 h,[13],1060 ng/mL
same,Activity,[14],0%
same,AUC(0-t),[15],131000 ng·h/mL
same,Cmax,[16],2760 ng/mL
same,Activity,[17],0%
same,AUC(0-t),[18],14300 ng·h/mL
same,CL/F,[19],11.3 mL/min
same,Activity,[20],0%
same,AUC(0-t),[21],2630 ng·h/mL
same,Activity,[22],0%
same,CL/F,[23],12 mL/min
same,Activity,[24],22%
same,Activity,[25],0%
same,Tmax,[26],1 h
same,half-life,[27],14.2 h
same,concentration at 240 h,[28],350 ng/mL
same,concentration at 240 h,[29],1640 ng/mL
same,AUC(0-t),[30],70800 ng·h/mL
same,CL/F,[31],11.5 mL/min
same,Tmax,[32],0.75 h
same,Cmax,[33],6160 ng/mL
same,Cmax,[34],3090 ng/mL
same,Activity,[35],13%
same,half-life,[36],12.7 h
same,Tmax,[37],0.63 h
